Here are results for 21 compounds from ChEMBL document CHEMBL5291721, “A preclinical secondary pharmacology resource illuminates target-adverse drug reaction associations of marketed drugs” (Nat Commun, 2023).

Assay [1] addresses T1, Muscarinic acetylcholine receptor M2 (Homo sapiens, UniProt P08172).
T1 sequence (P08172 whole entry): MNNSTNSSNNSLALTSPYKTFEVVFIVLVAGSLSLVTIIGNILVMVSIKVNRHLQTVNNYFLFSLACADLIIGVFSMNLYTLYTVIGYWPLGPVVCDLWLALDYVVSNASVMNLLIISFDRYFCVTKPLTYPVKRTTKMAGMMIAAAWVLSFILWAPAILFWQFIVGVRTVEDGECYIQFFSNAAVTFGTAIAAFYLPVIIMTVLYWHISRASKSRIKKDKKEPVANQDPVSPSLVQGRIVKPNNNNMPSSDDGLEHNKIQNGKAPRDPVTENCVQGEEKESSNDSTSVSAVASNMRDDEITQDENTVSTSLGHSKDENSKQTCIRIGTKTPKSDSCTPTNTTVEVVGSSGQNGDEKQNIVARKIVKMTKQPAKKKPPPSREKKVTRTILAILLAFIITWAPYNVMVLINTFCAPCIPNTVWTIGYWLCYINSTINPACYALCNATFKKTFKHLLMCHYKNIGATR

Assay [2] has as its target Prothrombin (Homo sapiens, UniProt P00734). The class given is functional.
Assay [3] concerns the target T2, Thromboxane A2 receptor (Homo sapiens, UniProt P21731).
T2 sequence (P21731 whole entry): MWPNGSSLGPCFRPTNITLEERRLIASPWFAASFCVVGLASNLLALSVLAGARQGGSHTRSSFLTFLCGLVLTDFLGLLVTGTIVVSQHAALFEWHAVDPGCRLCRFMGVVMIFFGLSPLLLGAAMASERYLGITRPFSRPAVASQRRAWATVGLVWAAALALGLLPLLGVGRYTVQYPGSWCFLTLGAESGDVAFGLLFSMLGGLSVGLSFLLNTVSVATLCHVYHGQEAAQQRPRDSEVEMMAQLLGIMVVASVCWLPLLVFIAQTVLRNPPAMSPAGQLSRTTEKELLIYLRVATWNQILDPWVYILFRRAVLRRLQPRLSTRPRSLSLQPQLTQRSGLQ
The format is functional, cell-based.

The target of assay [4] is 3',5'-cyclic-AMP phosphodiesterase 4A (Homo sapiens, UniProt P27815). The format is functional.
The target of assay [5] is Prostaglandin G/H synthase 1 (Homo sapiens, UniProt P23219). The format is functional.
Assay [6] addresses 5-hydroxytryptamine receptor 2B (Homo sapiens, UniProt P41595). The class given is functional, cell-based.
Assay [7] concerns the target D(3) dopamine receptor (Homo sapiens, UniProt P35462).
Assay [8] addresses Acetylcholinesterase (Homo sapiens, UniProt P22303). The format is functional.
Note: assay procedure not described here.

Prostaglandin G/H synthase 1, sequence (P23219 whole entry): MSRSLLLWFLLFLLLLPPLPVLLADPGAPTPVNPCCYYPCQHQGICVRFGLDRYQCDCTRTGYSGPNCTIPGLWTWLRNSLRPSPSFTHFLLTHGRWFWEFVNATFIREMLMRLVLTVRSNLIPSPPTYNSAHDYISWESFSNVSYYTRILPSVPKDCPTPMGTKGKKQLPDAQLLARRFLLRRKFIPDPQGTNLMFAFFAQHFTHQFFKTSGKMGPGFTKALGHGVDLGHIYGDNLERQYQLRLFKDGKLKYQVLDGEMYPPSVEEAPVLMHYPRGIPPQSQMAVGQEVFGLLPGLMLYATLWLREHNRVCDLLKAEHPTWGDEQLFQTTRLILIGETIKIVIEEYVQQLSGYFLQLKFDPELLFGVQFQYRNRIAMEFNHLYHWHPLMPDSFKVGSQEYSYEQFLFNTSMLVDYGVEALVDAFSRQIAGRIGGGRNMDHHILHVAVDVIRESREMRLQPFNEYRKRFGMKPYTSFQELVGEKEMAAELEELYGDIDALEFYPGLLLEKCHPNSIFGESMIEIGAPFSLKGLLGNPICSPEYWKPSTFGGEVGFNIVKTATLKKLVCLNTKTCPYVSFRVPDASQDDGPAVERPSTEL
D(3) dopamine receptor, sequence (P35462 whole entry): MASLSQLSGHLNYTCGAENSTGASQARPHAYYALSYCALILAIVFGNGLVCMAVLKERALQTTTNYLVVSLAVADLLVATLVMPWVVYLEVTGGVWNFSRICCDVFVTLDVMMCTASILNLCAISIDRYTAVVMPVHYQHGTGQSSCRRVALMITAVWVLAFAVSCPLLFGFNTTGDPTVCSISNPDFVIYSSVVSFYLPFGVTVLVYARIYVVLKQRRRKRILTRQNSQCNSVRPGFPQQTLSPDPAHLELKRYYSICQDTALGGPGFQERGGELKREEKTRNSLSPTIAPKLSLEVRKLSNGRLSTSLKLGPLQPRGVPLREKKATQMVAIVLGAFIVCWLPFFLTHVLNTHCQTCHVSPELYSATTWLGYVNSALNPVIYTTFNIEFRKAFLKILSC
Acetylcholinesterase, sequence (P22303 whole entry): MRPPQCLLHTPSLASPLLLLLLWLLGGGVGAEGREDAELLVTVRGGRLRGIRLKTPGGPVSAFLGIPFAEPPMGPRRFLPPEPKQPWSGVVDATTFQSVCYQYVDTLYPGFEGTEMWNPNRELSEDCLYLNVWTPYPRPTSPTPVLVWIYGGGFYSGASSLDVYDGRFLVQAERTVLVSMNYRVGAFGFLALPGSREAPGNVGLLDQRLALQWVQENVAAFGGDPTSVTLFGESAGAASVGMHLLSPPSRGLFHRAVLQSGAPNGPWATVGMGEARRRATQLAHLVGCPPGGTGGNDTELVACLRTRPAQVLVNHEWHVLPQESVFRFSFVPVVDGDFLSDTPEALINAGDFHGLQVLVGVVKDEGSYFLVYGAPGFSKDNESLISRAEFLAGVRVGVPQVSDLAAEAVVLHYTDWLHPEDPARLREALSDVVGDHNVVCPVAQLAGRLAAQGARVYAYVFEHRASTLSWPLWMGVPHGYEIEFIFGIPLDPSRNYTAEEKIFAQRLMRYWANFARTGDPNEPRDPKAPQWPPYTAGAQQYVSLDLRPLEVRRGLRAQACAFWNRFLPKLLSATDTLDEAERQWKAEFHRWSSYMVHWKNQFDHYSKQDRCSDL
5-hydroxytryptamine receptor 2B, sequence (P41595 whole entry): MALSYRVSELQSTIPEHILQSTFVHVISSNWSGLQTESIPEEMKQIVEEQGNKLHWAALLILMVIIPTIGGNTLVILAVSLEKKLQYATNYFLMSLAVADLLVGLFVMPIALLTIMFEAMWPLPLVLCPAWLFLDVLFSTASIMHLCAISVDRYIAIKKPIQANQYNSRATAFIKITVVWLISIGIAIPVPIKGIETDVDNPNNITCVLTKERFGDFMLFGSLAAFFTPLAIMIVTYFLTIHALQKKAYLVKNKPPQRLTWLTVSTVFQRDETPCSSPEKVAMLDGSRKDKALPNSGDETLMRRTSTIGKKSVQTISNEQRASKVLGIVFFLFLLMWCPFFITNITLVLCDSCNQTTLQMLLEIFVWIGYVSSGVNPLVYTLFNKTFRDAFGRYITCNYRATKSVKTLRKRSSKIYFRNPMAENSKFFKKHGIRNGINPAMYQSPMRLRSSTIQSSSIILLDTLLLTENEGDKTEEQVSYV
3',5'-cyclic-AMP phosphodiesterase 4A, sequence (P27815 whole entry): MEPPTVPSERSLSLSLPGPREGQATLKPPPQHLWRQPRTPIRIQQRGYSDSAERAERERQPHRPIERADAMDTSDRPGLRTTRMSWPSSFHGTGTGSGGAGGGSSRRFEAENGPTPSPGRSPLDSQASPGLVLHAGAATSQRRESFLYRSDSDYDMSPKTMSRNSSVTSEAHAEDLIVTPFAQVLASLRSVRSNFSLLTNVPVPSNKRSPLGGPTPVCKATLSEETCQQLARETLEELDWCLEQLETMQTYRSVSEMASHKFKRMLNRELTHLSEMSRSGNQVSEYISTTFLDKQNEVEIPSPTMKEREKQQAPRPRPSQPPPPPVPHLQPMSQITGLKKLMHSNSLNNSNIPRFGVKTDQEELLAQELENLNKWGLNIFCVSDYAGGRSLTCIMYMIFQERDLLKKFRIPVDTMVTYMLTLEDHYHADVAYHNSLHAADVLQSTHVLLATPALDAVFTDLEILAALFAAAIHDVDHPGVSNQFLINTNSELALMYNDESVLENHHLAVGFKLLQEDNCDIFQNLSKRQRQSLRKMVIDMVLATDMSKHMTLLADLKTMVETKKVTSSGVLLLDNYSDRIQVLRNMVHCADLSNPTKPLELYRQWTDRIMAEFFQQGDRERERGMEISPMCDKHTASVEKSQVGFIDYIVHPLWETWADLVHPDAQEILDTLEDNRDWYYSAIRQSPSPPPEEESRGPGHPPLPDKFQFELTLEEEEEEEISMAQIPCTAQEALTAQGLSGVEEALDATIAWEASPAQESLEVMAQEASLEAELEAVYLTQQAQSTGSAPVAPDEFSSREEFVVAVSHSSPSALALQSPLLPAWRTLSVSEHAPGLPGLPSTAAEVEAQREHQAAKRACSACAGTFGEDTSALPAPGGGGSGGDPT

Consider `CCN(CCCc1ccccc1)CCCc1ccccc1` [ALVERINE], for which the AC50 in assay [1] is 0.134 µM; in assay [2] it was greater than 30 µM; in assay [3], greater than 30 µM; in assay [4], greater than 30 µM; in assay [5] it was greater than 30 µM; in assay [6] it was greater than 30 µM. Moreover, the AC50 in assay [7] was 1.96 µM; in assay [8] it was greater than 30 µM.
With `COc1cc(N2CCC(N3CCN(C)CC3)CC2)ccc1Nc1ncc(Cl)c(Nc2ccccc2P(C)(C)=O)n1` [BRIGATINIB], the AC50 in assay [1], in assay [2], in assay [3], in assay [4], in assay [5] and in assay [6] was greater than 30 µM throughout. Further, the AC50 in assay [7] and in assay [8] was greater than 30 µM each time.
For `CN(C)CCOC(c1ccccc1)c1ccc(Br)cc1` (stereo not drawn) [BROMODIPHENHYDRAMINE], the AC50 in assay [1] is 1.42 µM; in assay [2] it was greater than 30 µM; in assay [3], greater than 30 µM; in assay [4] it was greater than 30 µM; in assay [5], greater than 30 µM; in assay [6], greater than 30 µM. Further, the results for the AC50 in assay [7] and in assay [8] were 2.68 µM and greater than 30 µM, respectively.
For the compound `CC(=O)O[C@]1(C(C)=O)CC[C@H]2[C@@H]3C=C(Cl)C4=CC(=O)CC[C@]4(C)[C@H]3CC[C@@]21C` [CHLORMADINONE ACETATE], the AC50 in assay [1] was 25.3 µM; in assay [2], greater than 30 µM; in assay [3] it was greater than 30 µM; in assay [4] it was greater than 30 µM; in assay [5] it was greater than 30 µM; in assay [6], greater than 30 µM. The AC50 in assay [7] and in assay [8] was greater than 30 µM throughout.
In the case of `NC(=O)OCC(O)COc1ccc(Cl)cc1` (stereo not drawn) [CHLORPHENESIN CARBAMATE], the AC50 in assay [1], in assay [2], in assay [3], in assay [4], in assay [5] and in assay [6] was greater than 30 µM throughout. Moreover, the AC50 in assay [7] and in assay [8] was greater than 30 µM each time.
As for `Cc1ccccc1N1CCN(CCc2nnc3n2CCCC3)CC1` [DAPIPRAZOLE], the AC50 was 7.61 µM in assay [1]; greater than 30 µM in assay [2]; greater than 30 µM in assay [3]; greater than 30 µM in assay [4]; greater than 30 µM in assay [5]; greater than 30 µM in assay [6]. For the same compound, the AC50 in assay [7] is 16.6 µM; in assay [8], greater than 30 µM.
On to `CCN(CC)C(=S)S` [DITIOCARB], for which the concentration at half-maximal activity (AC50) in assay [1], in assay [2], in assay [3], in assay [4], in assay [5] and in assay [6] was greater than 30 µM throughout. Besides, the AC50 in assay [7] is greater than 30 µM; in assay [8], greater than 10 µM.
As for `C=C1CC[C@H](O)C/C1=C/C=C1\CCC[C@]2(C)[C@@H]([C@H](C)/C=C/[C@H](C)C(C)C)CC[C@@H]12` [ERGOCALCIFEROL], the AC50 is greater than 30 µM in assay [1]; greater than 30 µM in assay [2]; greater than 30 µM in assay [3]; greater than 30 µM in assay [4]; 20.3 µM in assay [5]; greater than 30 µM in assay [6]. Moreover, the AC50 in assay [7] and in assay [8] was greater than 30 µM in each case.
For the compound `CCC(=O)O[C@]1(C(=O)CCl)[C@@H](C)C[C@H]2[C@@H]3C[C@H](F)C4=CC(=O)C=C[C@]4(C)[C@@]3(F)[C@@H](O)C[C@@]21C` [HALOBETASOL PROPIONATE], the AC50 in assay [1], in assay [2], in assay [3], in assay [4], in assay [5] and in assay [6] was greater than 30 µM throughout. Also, the AC50 in assay [7] and in assay [8] was greater than 30 µM in each case.
In the case of `CC(N)Cc1ccc(O)cc1` (stereo not drawn) [HYDROXYAMPHETAMINE], the AC50 in assay [1], in assay [2], in assay [3], in assay [4], in assay [5] and in assay [6] was greater than 30 µM each time. Also, the AC50 in assay [7] and in assay [8] was greater than 30 µM each time.
Turning to `Cc1cc(NC(=O)C2=C(O)c3ccccc3S(=O)(=O)N2C)no1` [ISOXICAM], the AC50 in assay [1], in assay [2], in assay [3], in assay [4], in assay [5] and in assay [6] was greater than 30 µM each time. The AC50 in assay [7] and in assay [8] was greater than 30 µM each time.
On to `COc1cc2c(cc1OC)CC(=O)N(CCCN(C)C[C@H]1Cc3cc(OC)c(OC)cc31)CC2` [IVABRADINE], for which the AC50 is 3.35 µM in assay [1]; greater than 30 µM in assay [2]; greater than 30 µM in assay [3]; greater than 30 µM in assay [4]; greater than 30 µM in assay [5]; greater than 30 µM in assay [6]. Moreover, the values for the half-maximal activity concentration (AC50) in assay [7] and in assay [8] were 2.61 µM and greater than 30 µM, respectively.
In the case of `CC(C)(C)NC[C@H](O)COc1cccc2c1CCCC2=O` [LEVOBUNOLOL], the AC50 in assay [1], in assay [2], in assay [3], in assay [4], in assay [5] and in assay [6] was greater than 30 µM in each case. For the same compound, the AC50 in assay [7] and in assay [8] was greater than 30 µM in each case.
Take `Cc1c(N(C)CS(=O)(=O)O)c(=O)n(-c2ccccc2)n1C` [METAMIZOLE]: the AC50 in assay [1], in assay [2], in assay [3], in assay [4], in assay [5] and in assay [6] was greater than 30 µM in each case. Also, the AC50 in assay [7] and in assay [8] was greater than 30 µM in each case.
Consider `CN1C(=O)/C(=N\NC(N)=S)c2ccccc21` [METHISAZONE], for which the AC50 in assay [1] is greater than 30 µM; in assay [2], greater than 30 µM; in assay [3], 21.8 µM; in assay [4] it was greater than 30 µM; in assay [5], greater than 10 µM; in assay [6], greater than 30 µM. Moreover, the AC50 in assay [7] and in assay [8] was greater than 30 µM each time.
Take `COC(=O)c1ccc(O)cc1` [METHYLPARABEN]: the AC50 in assay [1], in assay [2], in assay [3], in assay [4], in assay [5] and in assay [6] was greater than 30 µM each time. Besides, the AC50 in assay [7] and in assay [8] was greater than 30 µM in each case.
With `CCCc1nc(C(C)(C)O)c(C(=O)O)n1Cc1ccc(-c2ccccc2-c2nnn[nH]2)cc1` [OLMESARTAN], the AC50 in assay [1], in assay [2], in assay [3], in assay [4], in assay [5] and in assay [6] was greater than 30 µM throughout. Besides, the AC50 in assay [7] and in assay [8] was greater than 30 µM in each case.
For `NCC(CC(=O)O)c1ccccc1` (stereo not drawn) [PHENIBUT], the AC50 in assay [1], in assay [2], in assay [3], in assay [4], in assay [5] and in assay [6] was greater than 30 µM in each case. Besides, the AC50 in assay [7] and in assay [8] was greater than 30 µM each time.
`CC[C@@H]([C@H](C)O)n1ncn(-c2ccc(N3CCN(c4ccc(OC[C@@H]5CO[C@@](Cn6cncn6)(c6ccc(F)cc6F)C5)cc4)CC3)cc2)c1=O` [POSACONAZOLE]: the AC50 in assay [1], in assay [2], in assay [3], in assay [4], in assay [5] and in assay [6] was greater than 30 µM throughout. Further, the AC50 in assay [7] and in assay [8] was greater than 30 µM throughout.
Turning to `Cc1ncc(COP(=O)(O)O)c(C=O)c1O` [PYRIDOXAL PHOSPHATE ANHYDROUS], the AC50 in assay [1] is greater than 30 µM; in assay [2], greater than 30 µM; in assay [3], greater than 30 µM; in assay [4], 19.5 µM; in assay [5], 8.66 µM; in assay [6] it was greater than 30 µM. The AC50 in assay [7] and in assay [8] was greater than 30 µM throughout.
As to `c1ccc2c(c1)CCc1ccccc1N2C1CN2CCC1CC2` (stereo not drawn) [QUINUPRAMINE], the concentration at half-maximal activity (AC50) is 0.0329 µM in assay [1]; greater than 30 µM in assay [2]; greater than 30 µM in assay [3]; greater than 30 µM in assay [4]; greater than 30 µM in assay [5]; greater than 30 µM in assay [6]. Also, the figures for the AC50 in assay [7] and in assay [8] were 6.47 µM and greater than 30 µM, respectively.
